Measurements from patent publication US9676782B2, “Substituted pyrazolo[1,5-a]pyrazines as negative allosteric modulators of metabotropic glutamate receptor 3” (Vanderbilt University, priority 2014, dated 2017).
Read-outs that look alike come from different tables or passages of the source.

Tests used:
[1] = molecular target: rat mGlu3 (Rattus norvegicus (Rat), UniProt P31422); assay: mGlu3 Ca2+ flux assay; type: cell-based; conditions: for IC50: NAM potency, decrease of glutamate EC80 response, >30,000 = no measurable activity, >10,000 = no plateau, read-out: rat mGlu3 IC50; for remaining activity at 30 µM: amplitude of response at 30 μM test compound as % of maximal response to glutamate, read-out: rat mGlu3 Glu max (%)
Sequence of rat mGlu3 (P31422 23-879): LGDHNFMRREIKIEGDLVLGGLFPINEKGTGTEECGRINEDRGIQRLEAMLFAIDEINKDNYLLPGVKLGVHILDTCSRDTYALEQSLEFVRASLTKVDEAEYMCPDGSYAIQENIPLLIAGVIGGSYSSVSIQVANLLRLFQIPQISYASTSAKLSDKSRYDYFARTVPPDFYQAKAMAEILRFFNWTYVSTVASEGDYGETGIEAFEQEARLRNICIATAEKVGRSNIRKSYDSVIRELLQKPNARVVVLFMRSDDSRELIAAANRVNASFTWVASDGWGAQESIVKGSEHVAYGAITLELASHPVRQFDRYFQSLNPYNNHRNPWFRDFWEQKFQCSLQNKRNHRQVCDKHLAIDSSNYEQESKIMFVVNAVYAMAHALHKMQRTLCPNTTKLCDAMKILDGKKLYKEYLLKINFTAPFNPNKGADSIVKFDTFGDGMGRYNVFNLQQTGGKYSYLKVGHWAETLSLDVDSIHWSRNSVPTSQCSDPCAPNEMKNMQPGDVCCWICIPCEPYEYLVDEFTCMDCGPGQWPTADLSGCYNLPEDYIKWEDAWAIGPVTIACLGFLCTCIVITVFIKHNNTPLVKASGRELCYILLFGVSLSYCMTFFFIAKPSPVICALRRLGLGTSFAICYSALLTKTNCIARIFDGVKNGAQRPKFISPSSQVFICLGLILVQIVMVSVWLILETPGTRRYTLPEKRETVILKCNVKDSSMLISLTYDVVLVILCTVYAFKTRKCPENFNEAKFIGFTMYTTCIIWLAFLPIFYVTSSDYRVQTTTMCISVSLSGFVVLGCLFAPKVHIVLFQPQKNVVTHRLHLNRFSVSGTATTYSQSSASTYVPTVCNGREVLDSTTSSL
Method in brief: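 This calcium mobilization assay used rat mGlu3 cells cultured overnight (37° C., 5% CO2) and read on the FDSS7000 after a 10 minute room-temperature incubation in 20 μL assay buffer. Each of 360 readings per well was divided by its initial value (F/F0). Potency came from fitting normalized responses against log concentration with an unconstrained 4 parameter logistic equation, weighting triplicate points equally.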

[2] = molecular target: rat mGlu5 (Rattus norvegicus (Rat), UniProt P31424); assay: mGlu5 Ca2+ flux assay; type: cell-based; conditions: for Fold selectivity (mGlu3 vs. mGlu5): ratio of rat mGlu5 EC50 or IC50 to rat mGlu3 IC50; for Emax at 30 µM: read-out: rat mGlu5 Glu max (%)
Sequence of rat mGlu5 (P31424 21-1203): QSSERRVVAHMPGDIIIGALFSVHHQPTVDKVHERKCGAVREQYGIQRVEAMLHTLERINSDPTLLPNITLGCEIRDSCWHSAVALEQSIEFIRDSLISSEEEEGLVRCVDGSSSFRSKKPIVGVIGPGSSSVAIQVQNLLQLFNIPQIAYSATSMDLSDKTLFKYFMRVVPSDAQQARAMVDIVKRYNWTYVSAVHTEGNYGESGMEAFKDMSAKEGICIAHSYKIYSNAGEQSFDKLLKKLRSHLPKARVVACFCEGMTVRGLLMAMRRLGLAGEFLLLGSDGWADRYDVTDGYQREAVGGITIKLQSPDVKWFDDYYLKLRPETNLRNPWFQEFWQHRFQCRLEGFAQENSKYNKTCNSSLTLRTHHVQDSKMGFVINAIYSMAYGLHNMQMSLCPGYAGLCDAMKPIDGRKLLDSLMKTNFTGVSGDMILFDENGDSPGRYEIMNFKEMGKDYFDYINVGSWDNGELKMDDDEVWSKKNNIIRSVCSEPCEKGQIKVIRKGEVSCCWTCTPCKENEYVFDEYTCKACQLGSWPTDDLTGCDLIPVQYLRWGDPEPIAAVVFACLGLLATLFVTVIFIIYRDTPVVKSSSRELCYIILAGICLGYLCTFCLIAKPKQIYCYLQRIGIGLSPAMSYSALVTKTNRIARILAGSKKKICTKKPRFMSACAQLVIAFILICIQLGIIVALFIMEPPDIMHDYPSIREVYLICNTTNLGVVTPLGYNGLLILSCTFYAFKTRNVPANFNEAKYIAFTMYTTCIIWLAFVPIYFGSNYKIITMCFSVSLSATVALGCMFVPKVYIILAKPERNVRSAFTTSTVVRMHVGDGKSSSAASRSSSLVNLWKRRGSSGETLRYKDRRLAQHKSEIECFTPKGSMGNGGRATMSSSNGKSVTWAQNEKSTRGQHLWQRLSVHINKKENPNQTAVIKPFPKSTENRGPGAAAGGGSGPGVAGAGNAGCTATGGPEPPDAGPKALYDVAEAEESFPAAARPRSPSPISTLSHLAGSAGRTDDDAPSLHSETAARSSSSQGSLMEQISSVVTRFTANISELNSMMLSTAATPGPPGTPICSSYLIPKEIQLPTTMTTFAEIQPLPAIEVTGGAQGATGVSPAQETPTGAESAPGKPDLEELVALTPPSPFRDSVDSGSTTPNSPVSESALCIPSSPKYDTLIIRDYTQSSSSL
Method in brief: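 Ca2+ flux read kinetically (FDSS7000) after overnight culture at 37° C/5% CO2 and a 5 min room-temperature buffer step following dye removal. Signals expressed per well as F/F0 and normalized to peak glutamate response; EC50 fitted by free 4-parameter logistic, three replicates per concentration equally weighted.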

[3] = read-out: rat mGlu5 EC50 or IC50
[4] = PAM, amplitude of response at 30 μM test compound as % of maximal response to glutamate

CN(Cc1cc2n(n1)CCN(c1ccc(F)cc1)C2=O)c1ccccc1 [Compound 82, 5-(4-fluorophenyl)-2-((methyl(phenyl)amino)methyl)-6,7-dihydropyrazolo[1,5-a]pyrazin-4(5H)-one]
IC50 [1]: 1.22 µM
remaining activity at 30 µM [1]: 1.01%
Fold selectivity (mGlu3 vs. mGlu5) [2]: >24
EC50 [2, 3]: > 30 µM

CN(Cc1cc2n(n1)CCN(c1ccc(F)cc1)C2=O)c1ccccc1F [Compound 83, 5-(4-fluorophenyl)-2-(((2-fluorophenyl)(methyl)amino)methyl)-6,7-dihydropyrazolo[1,5-a]pyrazin-4(5H)-one]
IC50 [1]: 0.876 µM
remaining activity at 30 µM [1]: -0.98%
Fold selectivity (mGlu3 vs. mGlu5) [2]: >34
EC50 [2, 3]: > 30 µM

CN(Cc1cc2n(n1)CCN(c1ccc(F)cc1)C2=O)c1ccccc1Cl [Compound 84, 2-(((2-chlorophenyl)(methyl)amino)methyl)-5-(4-fluorophenyl)-6,7-dihydropyrazolo[1,5-a]pyrazin-4(5H)-one]
IC50 [1]: 1.86 µM
remaining activity at 30 µM [1]: 0.82%
IC50 ([2]; compound noted as NAM or partial antagonist (PAnt) at mGlu5, glutamate EC80, read-out: rat mGlu5 EC50 or IC50): > 10 µM
Emax at 30 µM ([2]; compound noted as NAM or partial antagonist (PAnt) at mGlu5, response at 30 μM as % of maximal glutamate response): 73.4%
Fold selectivity (mGlu3 vs. mGlu5) [2]: >5.3

COc1ccccc1N(C)Cc1cc2n(n1)CCN(c1ccc(F)cc1)C2=O [Compound 85, 5-(4-fluorophenyl)-2-(((2-methoxyphenyl)(methyl)amino)methyl)-6,7-dihydropyrazolo[1,5-a]pyrazin-4(5H)-one]
IC50 [1]: 9.48 µM
remaining activity at 30 µM [1]: -7.96%
Fold selectivity (mGlu3 vs. mGlu5) [2]: >3.1
EC50 [2, 3]: > 30 µM

CN(Cc1cc2n(n1)CCN(c1ccc(F)cc1)C2=O)c1cccc(F)c1 [Compound 86, 5-(4-fluorophenyl)-2-(((3-fluorophenyl)(methyl)amino)methyl)-6,7-dihydropyrazolo[1,5-a]pyrazin-4(5H)-one]
IC50 [1]: 0.594 µM
remaining activity at 30 µM [1]: 1.68%
Emax at 30 µM [2, 4]: 110%
Fold selectivity (mGlu3 vs. mGlu5) [2]: 13.06
EC50 [2, 3]: 7.76 µM

CN(Cc1cc2n(n1)CCN(c1ccc(F)cc1)C2=O)c1cccc(Cl)c1 [Compound 87, 2-(((3-chlorophenyl)(methyl)amino)methyl)-5-(4-fluorophenyl)-6,7-dihydropyrazolo[1,5-a]pyrazin-4(5H)-one]
IC50 [1]: 0.805 µM
remaining activity at 30 µM [1]: 0.71%
Emax at 30 µM [2, 4]: 41.9%
Fold selectivity (mGlu3 vs. mGlu5) [2]: >12
EC50 [2, 3]: > 10 µM

COc1cccc(N(C)Cc2cc3n(n2)CCN(c2ccc(F)cc2)C3=O)c1 [Compound 88, 5-(4-fluorophenyl)-2-(((3-methoxyphenyl)(methyl)amino)methyl)-6,7-dihydropyrazolo[1,5-a]pyrazin-4(5H)-one]
IC50 [1]: 1.02 µM
remaining activity at 30 µM [1]: 0.55%
Fold selectivity (mGlu3 vs. mGlu5) [2]: >29
EC50 [2, 3]: > 30 µM

CN(Cc1cc2n(n1)CCN(c1ccc(F)cc1)C2=O)c1ccc(F)cc1 [Compound 89, 5-(4-fluorophenyl)-2-(((4-fluorophenyl)(methyl)amino)methyl)-6,7-dihydropyrazolo[1,5-a]pyrazin-4(5H)-one]
IC50 [1]: 0.467 µM
remaining activity at 30 µM [1]: 1.29%
Fold selectivity (mGlu3 vs. mGlu5) [2]: >64
EC50 [2, 3]: > 30 µM

CN(Cc1cc2n(n1)CCN(c1ccc(F)cc1)C2=O)c1ccc(Cl)cc1 [Compound 90, 2-(((4-chlorophenyl)(methyl)amino)methyl)-5-(4-fluorophenyl)-6,7-dihydropyrazolo[1,5-a]pyrazin-4(5H)-one]
IC50 [1]: 0.885 µM
remaining activity at 30 µM [1]: 1.4%
Emax at 30 µM [2, 4]: 87.3%
Fold selectivity (mGlu3 vs. mGlu5) [2]: 5.08
EC50 [2, 3]: 4.5 µM

CN(Cc1cc2n(n1)CCN(c1ccc(F)cc1)C2=O)c1ccc(Br)cc1 [Compound 91, 2-(((4-bromophenyl)(methyl)amino)methyl)-5-(4-fluorophenyl)-6,7-dihydropyrazolo[1,5-a]pyrazin-4(5H)-one]
IC50 [1]: 0.592 µM
remaining activity at 30 µM [1]: 2.53%
Fold selectivity (mGlu3 vs. mGlu5) [2]: >50
EC50 [2, 3]: > 30 µM

CN(Cc1cc2n(n1)CCN(c1ccc(F)cc1)C2=O)c1ccc(C#N)cc1 [Compound 93, 4-(((5-(4-fluorophenyl)-4-oxo-4,5,6,7-tetrahydropyrazolo[1,5-a]pyrazin-2-yl)methyl)(methyl)amino)benzonitrile]
IC50 [1]: 1.13 µM
remaining activity at 30 µM [1]: 1.47%
Emax at 30 µM [2, 4]: 57.2%
Fold selectivity (mGlu3 vs. mGlu5) [2]: >8.8
EC50 [2, 3]: > 10 µM

CN(Cc1cc2n(n1)CCN(c1ccc(F)cc1)C2=O)c1cc(F)cc(F)c1 [Compound 94, 2-(((3,5-difluorophenyl)(methyl)amino)methyl)-5-(4-fluorophenyl)-6,7-dihydropyrazolo[1,5-a]pyrazin-4(5H)-one]
IC50 [1]: 0.66 µM
remaining activity at 30 µM [1]: 1.58%
Emax at 30 µM [2, 4]: 29.9%
Fold selectivity (mGlu3 vs. mGlu5) [2]: >15
EC50 [2, 3]: > 10 µM

O=C1c2cc(CNc3ccc(OC(F)F)cc3F)nn2CCN1c1cccc(F)c1 [Compound 95, 2-(((4-(Difluoromethoxy)-2-fluorophenyl)amino)methyl)-5-(3-fluorophenyl)-6,7-dihydropyrazolo[1,5-a]pyrazin-4(5H)-one]
IC50 [1]: 0.588 µM
remaining activity at 30 µM [1]: 3.43%
Emax at 30 µM [2, 4]: 31.1%
Fold selectivity (mGlu3 vs. mGlu5) [2]: >17
EC50 [2, 3]: > 10 µM

COc1ccc(N(C)Cc2cc3n(n2)CCN(c2ccc(Cl)cc2)C3=O)cc1 [Compound 96, 5-(4-chlorophenyl)-2-(((4-methoxyphenyl)(methyl)amino)methyl)-6,7-dihydropyrazolo[1,5-a]pyrazin-4(5H)-one]
IC50 [1]: 0.585 µM
remaining activity at 30 µM [1]: 1.61%
Fold selectivity (mGlu3 vs. mGlu5) [2]: >51
EC50 [2, 3]: > 30 µM

COc1ccc(N(C)Cc2cc3n(n2)CCN(c2ccc(F)c(F)c2)C3=O)cc1 [Compound 97, 5-(3,4-difluorophenyl)-2-(((4-methoxyphenyl)(methyl)amino)methyl)-6,7-dihydropyrazolo[1,5-a]pyrazin-4(5H)-one]
IC50 [1]: 1.08 ± 0.24 µM
remaining activity at 30 µM [1]: 1.74 ± 0.56%
Fold selectivity (mGlu3 vs. mGlu5) [2]: >27
EC50 [2, 3]: > 30 µM

COc1ccc(N(C)Cc2cc3n(n2)CCN(c2cccc(Cl)c2)C3=O)cc1 [Compound 98, 5-(3-chlorophenyl)-2-(((4-methoxyphenyl)(methyl)amino)methyl)-6,7-dihydropyrazolo[1,5-a]pyrazin-4(5H)-one]
IC50 [1]: 0.668 µM
remaining activity at 30 µM [1]: 1.53%
Fold selectivity (mGlu3 vs. mGlu5) [2]: >44
EC50 [2, 3]: > 30 µM

COc1ccc(N(C)Cc2cc3n(n2)CCN(c2ccc(C)cc2)C3=O)cc1 [Compound 99, 2-(((4-methoxyphenyl)(methyl)amino)methyl)-5-(p-tolyl)-6,7-dihydropyrazolo[1,5-a]pyrazin-4(5H)-one]
IC50 [1]: 0.675 µM
remaining activity at 30 µM [1]: 1.2%
Fold selectivity (mGlu3 vs. mGlu5) [2]: >44
EC50 [2, 3]: > 30 µM

COc1ccc(N(C)Cc2cc3n(n2)CCN(c2ccccc2Cl)C3=O)cc1 [Compound 100, 5-(2-chlorophenyl)-2-(((4-methoxyphenyl)(methyl)amino)methyl)-6,7-dihydropyrazolo[1,5-a]pyrazin-4(5H)-one]
IC50 [1]: 0.777 µM
remaining activity at 30 µM [1]: 1.8%
Fold selectivity (mGlu3 vs. mGlu5) [2]: >38
EC50 [2, 3]: > 30 µM

COc1ccc(N(C)Cc2cc3n(n2)CCN(c2cccc(F)c2)C3=O)cc1 [Compound 101, 5-(3-fluorophenyl)-2-(((4-methoxyphenyl)(methyl)amino)methyl)-6,7-dihydropyrazolo[1,5-a]pyrazin-4(5H)-one]
IC50 [1]: 0.783 µM
remaining activity at 30 µM [1]: 1.57%
Fold selectivity (mGlu3 vs. mGlu5) [2]: >38
EC50 [2, 3]: > 30 µM

COc1ccc(N(C)Cc2cc3n(n2)CCN(c2c(F)cc(F)cc2F)C3=O)cc1 [Compound 102, 2-(((4-methoxyphenyl)(methyl)amino)methyl)-5-(2,4,6-trifluorophenyl)-6,7-dihydropyrazolo[1,5-a]pyrazin-4(5H)-one]
IC50 [1]: 0.801 µM
remaining activity at 30 µM [1]: 1.68%
Fold selectivity (mGlu3 vs. mGlu5) [2]: >37
EC50 [2, 3]: > 30 µM

COc1ccc(N(C)Cc2cc3n(n2)CCN(c2cccc(C)c2)C3=O)cc1 [Compound 103, 2-(((4-methoxyphenyl)(methyl)amino)methyl)-5-(m-tolyl)-6,7-dihydropyrazolo[1,5-a]pyrazin-4(5H)-one]
IC50 [1]: 0.805 µM
remaining activity at 30 µM [1]: 1.16%
Fold selectivity (mGlu3 vs. mGlu5) [2]: >37
EC50 [2, 3]: > 30 µM

COc1ccc(N(C)Cc2cc3n(n2)CCN(c2cc(F)cc(F)c2)C3=O)cc1 [Compound 104, 5-(3,5-difluorophenyl)-2-(((4-methoxyphenyl)(methyl)amino)methyl)-6,7-dihydropyrazolo[1,5-a]pyrazin-4(5H)-one]
IC50 [1]: 0.856 µM
remaining activity at 30 µM [1]: 1.3%
Fold selectivity (mGlu3 vs. mGlu5) [2]: >35
EC50 [2, 3]: > 30 µM

COc1ccc(N(C)Cc2cc3n(n2)CCN(c2ccccc2F)C3=O)cc1 [Compound 105, 5-(2-fluorophenyl)-2-(((4-methoxyphenyl)(methyl)amino)methyl)-6,7-dihydropyrazolo[1,5-a]pyrazin-4(5H)-one]
IC50 [1]: 0.871 µM
remaining activity at 30 µM [1]: 2.05%
Fold selectivity (mGlu3 vs. mGlu5) [2]: >34
EC50 [2, 3]: > 30 µM
